Here are results for ten molecules from patent US9061997B2, “Quinolinone derivatives” (Centre National de la Recherche Scientifique, priority 2010, dated 2015).

The subject of assay [1] is C3H10T1/2 cells. Briefly: Enzymatic assay of alkaline phosphatase in 96-well plates (differentiation of C3H10T1/2 cells). Format: cell-based. Particulars: for EC50 / Emax: Mus musculus. As for the experimental part:
(§1) The effect of the compounds of general formula (I) in accordance with the invention on the stimulation of osteogenesis was determined in vitro by analyzing the differentiation of the C3H10T1/2 pluripotent mesenchymal cell line.
(§2) The test compounds of formula (I) were dissolved in dimethyl sulfoxide (DMSO) to a concentration of 2.5 mM, and then stored at a temperature of −20° C. until use.
(§3) The C3H10T1/2 pluripotent fibroblast cell line (ATCC CCL 226) was cultured under the conditions recommended by the ATCC in DMEM culture medium supplemented with 10% of fetal calf serum at a temperature of 37° C. under an atmosphere at 5% CO2. 24 hours after seeding, the cells were stimulated for 6 days in the presence of the compounds of general formula (I) directly diluted in the culture medium. The activation by these compounds causes differentiation of the cell line to the osteoblast lineage and enables the latter to express alkaline phosphatase. Said alkaline phosphatase is then detected by histochemistry or enzymatic assay.
The C3H10T1/2 cells were seeded onto 96-well plates at a density of 5×10^3 cells per well. The compounds were applied at increasing concentrations ranging from 10 nM to 10 μM. The plates were then incubated for 6 days and the assays were then carried out in quadruplicate according to the methods previously described (Chen et al. 2002; Frank-Kamenetsky et al. 2002).
The cells were washed in cold phosphate buffer (PBS) and then lysed by sonication at 4° C. in 50 μl of solution containing 0.9% of NaCl and 0.2% of Triton X-100. The alkaline phosphatase activity in the resulting lysates was then measured according to the method described by Pepinsky et al. (Pepinsky et al. 1998). After the addition of 100 μl of reaction buffer (200 mM Tris-HCl; pH 10.5; 0.4 M of 2-amino-2-methylpropanol and 8 mM of MgCl2) and of 50 μl of substrate (4 mM of disodium p-nitrophenyl phosphate), the lysates were incubated at 37° C. for 60 min, and then the optical density (OD) was measured at a wavelength of 415 nm. By way of comparison, the activity of the SAG compound, which activates osteogenesis by acting on the Hedgehog pathway, was tested under the same conditions. The GraphPad Prism 4° software was used to plot the curves and to determine the effective concentrations 50 (EC50).

Assay [2] concerns C3H10T1/2 cells. In words: Detection of alkaline phosphatase by histochemistry (differentiation of C3H10T1/2 cells). Format: cell-based. Particulars: 10 μM, 6 days; intensities compound 4>compound 1>compound 8>compound 6; no DMSO-treated cell labeled. As for the experimental part:
as §1, §2, §3
For this experiment, the cells are cultured in 6-well plates containing a glass cover slip treated for 1H with 0.05 mg/ml poly-D-lysine. The C3H10T1/2 cells are seeded at a density of 150 000 cells per well. The compounds were applied at a concentration of 10 μM. the Sigma staining kit (85L-3R) was used according to the protocol described. Briefly, after fixing the cells for 30 seconds with a solution of citrate/acetone (2-3) and then rinsing with double-distilled water, the staining is carried out for 30 min in the presence of a solution of Fast-Violet/Naphthol in the dark. The cover slips are then rinsed thoroughly with double-distilled water and then mounted in aqueous medium before being photographed on a DMRXA2 microscope (Leica Microsystems). The cells expressing alkaline phosphatase are stained red.

Setting [3] is: C3H 10T1/2, 144 h, 6 days of stimulation, 10 nM to 10 μM, OD 415 nm, mean of 2 to 5 independent experiments, read-out: EC50 on the differentiation of C3H10T1/2 cells measured via alkaline phosphatase activity.
[4] abbreviates: C3H 10T1/2, 144 h, 6 days of stimulation, relative to compound 1 in the same experiment, mean of 2 to 5 independent experiments, read-out: Maximum stimulation, % of maximum activation of compound 1.
Setting [5] is: dose-response curve produced in parallel with compound 1.

Where two headings read alike, the source gives them in different places.

Take `CCCCCCn1c(=O)c(C(=O)Nc2ccc(C(=O)OCCC)cc2)c(O)c2ccccc21` [Compound 1, propyl 4-(1-hexyl-4-hydroxy-2-oxo-1,2-dihydroquinoline-3-carboxamido)benzoate]: the EC50 in the assay with C3H10T1/2 cells [1] (setting [3]) was determined as 1300 nM. Moreover, the Emax in the assay with C3H10T1/2 cells [1] (setting [4]) was found to be 100%. The “Expression of alkaline phosphatase detected by histochemical staining (number of cells labeled)” value (“Expression” below) in the assay with C3H10T1/2 cells [2] is “increase in the number of cells labeled”.
On to `CCOC(=O)c1ccc(NC(=O)c2c(O)c3ccccc3n(Cc3ccccc3)c2=O)cc1` [Compound 2, ethyl 4-(1-benzyl-4-hydroxy-2-oxo-1,2-dihydroquinoline-3-carboxamido)benzoate], for which, in the assay with C3H10T1/2 cells [1] (setting [3]), the EC50 is greater than 3000 nM. Also, in the assay on C3H10T1/2 cells [1] (setting [4]), the Emax was 4%.
For `CCCCCCn1c(=O)c(C(=O)Nc2ccc(C(=O)OCC)cc2)c(O)c2ccccc21` [Compound 3, ethyl 4-(1-hexyl-4-hydroxy-2-oxo-1,2-dihydroquinoline-3-carboxamido)benzoate] the same measures were 3600 nM and 66%.
Take `CCCCCCn1c(=O)c(C(=O)Nc2ccc(C(=O)O)cc2)c(O)c2ccccc21` [Compound 4, 4-(1-hexyl-4-hydroxy-2-oxo-1,2-dihydroquinoline-3-carboxamido)benzoic acid]: the EC50 stood at 600 nM in the assay with C3H10T1/2 cells [1] (setting [3]) and 600 nM with C3H10T1/2 cells [1] (C3H 10T1/2, 144 h, 6 days of stimulation, alkaline phosphatase activity, read-out: Affinity (activation of C3H10T1/2 cell differentiation)). Also, the Emax stood at 124% in the assay on C3H10T1/2 cells [1] (setting [4]) and 20% in the assay on C3H10T1/2 cells [1] (C3H 10T1/2, excess over compound 1, read-out: Maximum stimulation greater than that of compound 1). For the same molecule, the “Expression” value in the assay with C3H10T1/2 cells [2] is reported as “increase in the number of cells labeled”.
Take `CCCCCCn1c(=O)c(C(=O)Nc2ccc(C(=O)OCCCC)cc2)c(O)c2ccccc21` [Compound 5, butyl 4-(1-hexyl-4-hydroxy-2-oxo-1,2-dihydroquinoline-3-carboxamido)benzoate]: the EC50 in the assay on C3H10T1/2 cells [1] (setting [3]) is 1500 nM. Moreover, in the assay on C3H10T1/2 cells [1] (setting [4]), the Emax came to 91%.
In the case of `CCCCCCn1c(=O)c(C(=O)Nc2ccc(C(=O)OC(C)(C)C)cc2)c(O)c2ccccc21` [Compound 6, tert-butyl 4-(1-hexyl-4-hydroxy-2-oxo-1,2-dihydroquinoline-3-carboxamido)benzoate], the EC50 with C3H10T1/2 cells [1] (setting [3]) worked out at 3100 nM. Besides, in the assay on C3H10T1/2 cells [1] (setting [4]), the Emax amounted to 62%. In addition, the “Expression” value with C3H10T1/2 cells [2] is recorded as “increase in the number of cells labeled”.
Regarding `CCCCCCn1c(=O)c(C(=O)Nc2ccc(C(=O)OCc3ccccc3)cc2)c(O)c2ccccc21` [Compound 7, benzyl 4-(1-hexyl-4-hydroxy-2-oxo-1,2-dihydroquinoline-3-carboxamido)benzoate], in the assay on C3H10T1/2 cells [1] (setting [3]), the EC50 was determined as 2000 nM. The Emax in the assay on C3H10T1/2 cells [1] (setting [4]) was 47%.
In the case of `CCCCCCn1c(=O)c(C(=O)Nc2ccc(C(=O)NCCCC)cc2)c(O)c2ccccc21` [Compound 8, N-(4-(butylcarbamoyl)phenyl)-1-hexyl-4-hydroxy-2-oxo-1,2-dihydroquinoline-3-carboxamide], the EC50 with C3H10T1/2 cells [1] (setting [3]) was 5800 nM. In addition, the Emax with C3H10T1/2 cells [1] (setting [4]) came out at 94%. In addition, in the assay on C3H10T1/2 cells [2], the “Expression” value was “increase in the number of cells labeled”.
Turning to `CCCCCCn1c(=O)c(C(=O)Nc2ccc(C(=O)OC(C)C)cc2)c(O)c2ccccc21` [Compound 9, isopropyl 4-(1-hexyl-4-hydroxy-2-oxo-1,2-dihydroquinoline-3-carboxamido)benzoate], the EC50 in the assay with C3H10T1/2 cells [1] (setting [3]) came to 6500 nM. In the assay with C3H10T1/2 cells [1] (setting [4]), the Emax stood at 33%.
On to `CNC1CCC(N(Cc2cccc(-c3ccncc3)c2)C(=O)c2sc3ccccc3c2Cl)CC1` (centres unmarked) [SAG, reference compound], for which, in the assay with C3H10T1/2 cells [1] (setting [5]), the “Affinity compared with compound 1 (FIG. 3)” value is listed as “similar” and the “Maximum stimulation compared with compound 1 (FIG. 3)” value is reported as “lower maximum stimulation than compound 1”.
